Data published in the supplement of paper PMC10331698.
± gives the standard deviation of the averaged measurements.

What was measured:
Assay in all cases: level (log10 ratio to DMSO vehicle control); higher = higher biomarker level / cell amount than vehicle control
[1] = compound: CO[Si](C)(CCC(F)(F)C(F)(F)C(F)(F)C(F)(F)C(F)(F)C(F)(F)F)OC [Dimethoxymethyl((perfluorohexyl)ethyl)silane] (in DMSO)
Description: (§1)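 BioMAP Diversity Plus panel of 12 human primary cell co-culture systems (3C, 4H, LPS, SAg, BT, BF4T, BE3C, CASM3C, HDF3CGF, KF3CT, MyoF, Mphg). Compounds were added 1 h before stimulation and left for 24 h (MyoF 48 h; BT 72 h for soluble read-outs or 6 d for IgG). Biomarkers were read by ELISA, cytotoxicity by SRB, PBMC viability and proliferation by Alamar Blue. Each well value was divided by the mean of 8 DMSO control wells on the same plate and log10 transformed; duplicate blinded samples were tested at 4 concentrations.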

[2] = compound: NS(=O)(=O)C(F)(F)C(F)(F)C(F)(F)C(F)(F)C(F)(F)C(F)(F)C(F)(F)C(F)(F)F [Perfluorooctanesulfonamide] (in DMSO)
Description: as §1

Perfluoroundecanoic acid = compound: O=C(O)C(F)(F)C(F)(F)C(F)(F)C(F)(F)C(F)(F)C(F)(F)C(F)(F)C(F)(F)C(F)(F)C(F)(F)F [Perfluoroundecanoic acid] (in DMSO); conditions: 6700 nM
Description: as §1

[3] = compound: O=C(O)C(F)(F)C(F)(F)C(F)(F)OC(F)(F)F [Perfluoro(4-methoxybutanoic) acid] (in DMSO)
Description: as §1

[4] = compound: O=C(O)C=C(C(F)(F)F)C(F)(F)F [3,3-Bis(trifluoromethyl)-2-propenoic acid] (in DMSO)
Description: as §1

[5] = compound: O=S(=O)(O)C(F)(F)C(F)(F)C(F)(F)C(F)(F)C(F)(F)C(F)(F)C(F)(F)F [Perfluoroheptanesulfonic acid] (in DMSO)
Description: as §1

[6] = compound: O=S(=O)(O)CCC(F)(F)C(F)(F)C(F)(F)C(F)(F)C(F)(F)C(F)(F)C(F)(F)C(F)(F)F [8:2 Fluorotelomer sulfonic acid] (in DMSO)
Description: as §1

Test System | level (log10) ([1]; 6700 nM) | level (log10) ([1]; 20000 nM) | level (log10) ([2]; 6700 nM) | level (log10) ([2]; 20000 nM) | level (log10) (Perfluoroundecanoic acid) | level (log10) ([3]; 6700 nM) | level (log10) ([3]; 20000 nM) | level (log10) ([3]; 60000 nM) | level (log10) ([4]; 6700 nM) | level (log10) ([4]; 20000 nM) | level (log10) ([4]; 60000 nM) | level (log10) ([5]; 1500 nM) | level (log10) ([5]; 4400 nM) | level (log10) ([5]; 13000 nM) | level (log10) ([5]; 40000 nM) | level (log10) ([6]; 6700 nM) | level (log10) ([6]; 20000 nM) | level (log10) ([6]; 60000 nM)
MyoF:SRB | 0.0045 ± 0.0064 | 0.0005 ± 0.00071 | -0.0135 ± 0.0035 | -0.136 ± 0.0021 | -0.029 ± 0.014 | -0.0075 ± 0.0035 | -0.008 ± 0.0028 | -0.0005 ± 0.00071 | 0.0005 ± 0.012 | -0.005 ± 0.0014 | -0.024 ± 0.0071 | -0.009 ± 0.0099 | 0.002 ± 0.0028 | 0.002 ± 0.0014 | -0.007 ± 0.0042 | -0.0005 ± 0.0021 | -0.009 ± 0.0014 | -0.0035 ± 0.0035
HDF3CGF:CXCL9/MIG | -0.0005 ± 0.005 | -0.005 ± 0.035 | -0.203 ± 0.011 | -0.761 ± 0.11 | -0.0645 ± 0.005 | -0.0085 ± 0.0035 | 0.0025 ± 0.0064 | -0.005 ± 0.037 | -0.006 ± 0.0028 | -0.0075 ± 0.013 | -0.0175 ± 0.015 | -0.0075 ± 0.019 | -0.008 ± 0.013 | -0.0275 ± 0.011 | -0.0505 ± 0.042 | -0.048 ± 0.034 | -0.0575 ± 0.04 | 0.061 ± 0.034
MyoF:bFGF | 0.002 ± 0.0085 | 0.0055 ± 0.011 | 0.0115 ± 0.00071 | -0.0145 ± 0.0021 | 0.0035 ± 0.0092 | 0.001 ± 0.0042 | 0.0015 ± 0.012 | 0.015 ± 0.0042 | 0.0125 ± 0.0064 | 0.0075 ± 0.019 | 0.0325 ± 0.019 | 0.021 ± 0.0071 | 0.0185 ± 0.005 | 0.0105 ± 0.00071 | 0.039 ± 0.02 | 0.0045 ± 0.012 | 0.006 ± 0.023 | 0.0265 ± 0.0021
3C:CD62E/E-Selectin | -0.023 ± 0.0042 | -0.0235 ± 0.005 | -0.006 ± 0.02 | 0.043 ± 0.011 | -0.0135 ± 0.04 | -0.012 ± 0.057 | -0.0085 ± 0.046 | -0.014 ± 0.0085 | -0.044 ± 0.0057 | -0.081 | -0.123 ± 0.026 | -0.01 ± 0.021 | -0.018 | -0.024 ± 0.017 | 0.005 ± 0.0014 | 0.013 ± 0.025 | 0.0385 ± 0.0021 | 0.0715 ± 0.0078
HDF3CGF:Collagen III | -0.022 ± 0.035 | -0.0165 ± 0.07 | -0.0345 ± 0.012 | -0.449 ± 0.019 | -0.049 ± 0.05 | 0.0075 ± 0.033 | 0 ± 0.0099 | -0.007 ± 0.021 | -0.0905 ± 0.012 | -0.0985 ± 0.029 | -0.0635 ± 0.069 | -0.004 ± 0.018 | -0.0385 ± 0.053 | -0.052 ± 0.05 | -0.0205 ± 0.033 | 0.05 ± 0.014 | 0.0975 ± 0.0092 | 0.0145 ± 0.12
BE3C:MMP-1 | -0.0085 ± 0.03 | 0.034 ± 0.033 | 0.084 ± 0.021 | 0.154 ± 0.014 | 0.135 ± 0.011 | 0.0115 ± 0.012 | -0.009 ± 0.041 | 0.029 ± 0.095 | -0.066 ± 0.0099 | -0.0425 ± 0.005 | 0.0305 ± 0.073 | 0.011 ± 0.018 | 0.019 ± 0.023 | 0.05 ± 0.021 | 0.133 ± 0.022 | 0.048 ± 0.024 | 0.1715 ± 0.00071 | 0.232 ± 0.027
BE3C:uPA | 0.0115 ± 0.011 | -0.0055 ± 0.013 | -0.0065 ± 0.013 | 0.0145 ± 0.0064 | 0.0255 ± 0.00071 | -0.004 ± 0.017 | -0.0125 ± 0.012 | 0.0035 ± 0.005 | -0.0205 ± 0.011 | -0.015 ± 0.0099 | -0.0045 ± 0.018 | -0.0055 ± 0.023 | -0.004 ± 0.034 | -0.0235 ± 0.032 | -0.018 ± 0.038 | 0.006 ± 0.0071 | 0.0055 ± 0.0035 | -0.002 ± 0.0028
lMphg:sIL-10 | -0.0465 ± 0.013 | -0.085 ± 0.014 | -0.068 ± 0.021 | -0.169 ± 0.025 | 0.0325 ± 0.016 | 0 ± 0.03 | -0.017 ± 0.0014 | -0.0345 ± 0.023 | -0.2 ± 0.0071 | -0.325 ± 0.029 | -0.547 ± 0.028 | -0.042 ± 0.018 | -0.109 ± 0.048 | -0.101 ± 0.023 | -0.239 ± 0.072 | -0.078 ± 0.024 | -0.216 ± 0.0057 | -0.6535 ± 0.0064
CASM3C:CCL2/MCP-1 | -0.013 | 0.02 ± 0.016 | 0.01 ± 0.013 | 0.01 ± 0.023 | 0.0065 ± 0.015 | -0.01 ± 0.011 | -0.008 ± 0.0057 | 0.017 ± 0.031 | -0.03 ± 0.0028 | -0.0425 ± 0.00071 | -0.0465 ± 0.022 | -0.007 ± 0.088 | -0.043 ± 0.024 | -0.034 ± 0.016 | -0.021 ± 0.0028 | -0.0095 ± 0.00071 | -0.003 ± 0.0057 | 0.016 ± 0.04
